The source of these data is ChEMBL document CHEMBL1201862, “PubChem BioAssay data set” (2004).

Calls of active or inactive are those of the source. Rule as the data show it, for most assays here: actives have a measured EC50 and inactives only a lower limit.

One test deals with T1, Protein skinhead-1 (Caenorhabditis elegans, UniProt P34707).
T1 sequence (P34707 whole entry): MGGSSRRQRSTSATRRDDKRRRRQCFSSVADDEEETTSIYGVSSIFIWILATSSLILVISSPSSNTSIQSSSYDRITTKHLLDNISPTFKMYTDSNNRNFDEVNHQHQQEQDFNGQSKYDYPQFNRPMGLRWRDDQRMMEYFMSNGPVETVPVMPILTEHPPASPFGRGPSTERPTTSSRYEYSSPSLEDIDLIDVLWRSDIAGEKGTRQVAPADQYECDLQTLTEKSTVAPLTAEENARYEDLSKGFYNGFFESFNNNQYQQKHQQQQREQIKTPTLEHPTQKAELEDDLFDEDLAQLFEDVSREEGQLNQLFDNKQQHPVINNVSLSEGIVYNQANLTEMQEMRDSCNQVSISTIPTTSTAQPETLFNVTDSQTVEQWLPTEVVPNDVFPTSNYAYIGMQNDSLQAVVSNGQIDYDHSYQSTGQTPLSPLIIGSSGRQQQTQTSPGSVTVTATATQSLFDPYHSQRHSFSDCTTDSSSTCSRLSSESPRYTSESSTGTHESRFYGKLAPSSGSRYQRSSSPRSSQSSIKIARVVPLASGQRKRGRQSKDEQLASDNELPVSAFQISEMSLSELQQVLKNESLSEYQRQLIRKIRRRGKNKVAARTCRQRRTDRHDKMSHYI
Format: functional.

Test [1] is described as follows: Luminescence Cell-Based Dose Confirmation HTS to Identify Activators of 5'UTR Stem-Loop Driven Alpha-Synuclein mRNA Translation in H4 Neuroglioblastoma Cells. [Related pubchem assays: 1829 (Project Summary), 1814 (Primary HTS)]. It counts as functional.
Test [2] is described as follows: Luminescence Cell-Based Dose Response HTS to Identify Activators of Luciferase Translation or Activity in H4 […] Cells. [Related pubchem assays: 1829 (Project Summary), 1814 (Primary HTS)]. It counts as functional.
A further test deals with H4. Description: Luminescence Cell-Based Dose Response HTS to Identify Activators of 5'UTR Stem-Loop Driven Prion Protein mRNA Translation in H4 Neuroglioblastoma Cells. [Related pubchem assays: 1829 (Project Summary), 1814 (Primary HTS)]. Conditions: Homo sapiens. It counts as functional.
Test [3] can be described thus: NIH-3T3 fibroblast cytotoxicity, dose response, cytotoxicity control, cell-based, fluorescence, Alamar Blue, secondary assay (AID 2327).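 Also: NIH-3T3 mouse fibroblasts cultured with fluconazole at 8 µg/mL.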 It counts as functional. For orientation: Resazurin is reduced to fluorescent resorufin, in cell work by metabolically active cells.
Test [4] can be described thus: C. albicans growth with fluconazole, confirmation, fluorescence, retest (AID 2467). It counts as functional, cell-based.
The nature of test [5]: HEp-2 cell cytotoxicity, dose response, cytotoxicity control for RSV inhibitor project, HTS (AID 2410). Conditions: human respiratory syncytial virus. It counts as functional.
A short description of test [6]: microbe, parasite or virus in culture. Format: functional. Conditions: Mycobacterium tuberculosis.
The test system of the next test is H9c2. Put plainly: cells. Format: functional, cell-based. Conditions: Rattus norvegicus, H9c2, Myocardium.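 Also: confirmatory concentration-response retest of ultra-high-throughput screening hits for modulation of myocardial damage; cell death induced by hydrogen peroxide oxidative stress; compound pretreatment for 60 min then peroxide exposure for 2 h; potency is for protecting the cells against peroxide damage rather than for killing them.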
For test [7], the target named is T2, Corticotropin-releasing factor receptor 2/Corticotropin-releasing factor-binding protein (Homo sapiens, UniProt P24387+Q13324).
T2 sequence (Q13324 whole entry): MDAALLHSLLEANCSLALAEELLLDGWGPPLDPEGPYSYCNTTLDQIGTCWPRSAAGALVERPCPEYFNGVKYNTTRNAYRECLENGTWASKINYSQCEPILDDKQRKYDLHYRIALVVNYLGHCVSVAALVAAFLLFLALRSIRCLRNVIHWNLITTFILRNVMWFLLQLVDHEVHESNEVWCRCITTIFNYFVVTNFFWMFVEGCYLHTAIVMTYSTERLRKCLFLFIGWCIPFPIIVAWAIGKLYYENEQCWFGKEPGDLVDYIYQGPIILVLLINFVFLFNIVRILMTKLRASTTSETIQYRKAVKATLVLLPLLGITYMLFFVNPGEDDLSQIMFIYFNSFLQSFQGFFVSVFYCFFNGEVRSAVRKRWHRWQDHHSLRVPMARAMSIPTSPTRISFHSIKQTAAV
T2 sequence (P24387 whole entry): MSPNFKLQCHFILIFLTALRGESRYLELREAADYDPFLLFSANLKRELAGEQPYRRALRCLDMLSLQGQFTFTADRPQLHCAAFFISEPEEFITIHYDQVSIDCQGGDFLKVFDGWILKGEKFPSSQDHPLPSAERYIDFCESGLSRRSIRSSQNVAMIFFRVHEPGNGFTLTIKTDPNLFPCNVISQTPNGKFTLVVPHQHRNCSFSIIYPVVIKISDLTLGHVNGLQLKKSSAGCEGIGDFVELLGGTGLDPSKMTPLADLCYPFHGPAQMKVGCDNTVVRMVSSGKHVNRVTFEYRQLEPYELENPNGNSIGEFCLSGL
Put plainly: activators of CRF receptor 2 with binding protein – uHTS hits, confirmation (AID 602473). It counts as functional. Conditions: read-out: EC50_Mean.

Test [8] in a line: inhibitors of intracellular T. cruzi replication, confirmation, NIH3T3 host cells, beta-gal luminescence (AID 2044).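 Also: intracellular parasites grown in NIH/3T3 mouse fibroblasts as host cells; luminescent beta-galactosidase reporter signal from transgenic T. cruzi replicating inside host cells; inhibitors lower the luminescence signal.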 Format: functional, cell-based.
A short description of test [9]: cytotoxicity toward NIH3T3 fibroblasts, dose response, counter-screen, cell-based, ATP luminescence, mouse fibroblasts (AID 2010).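 Also: cells exposed to compound for about 90 hours before reading.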 It counts as functional.
Test [10] is described as follows: Shn3 3'UTR reporter inhibitors, dose response, cell-based, Clone20 osteoblasts, firefly luciferase, cherry-picked (AID 624132).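 Also: firefly luciferase luminescence from reporter carrying the Shn3 3'UTR in osteoblasts.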 Format: functional.
Test [11] has as its system Streptococcus sp. 'group A'. Description: growth inhibition of control SK(-) GAS strain, dose response, counter-screen for streptokinase expression inhibitor project, luminescence, kanamycin, BacTiterGlo, confirmation (AID 1900). Format: functional, organism-based.
The target of the next test is T3, Streptokinase A (Streptococcus pyogenes serotype M1, UniProt P10520).
T3 sequence (P10520 whole entry): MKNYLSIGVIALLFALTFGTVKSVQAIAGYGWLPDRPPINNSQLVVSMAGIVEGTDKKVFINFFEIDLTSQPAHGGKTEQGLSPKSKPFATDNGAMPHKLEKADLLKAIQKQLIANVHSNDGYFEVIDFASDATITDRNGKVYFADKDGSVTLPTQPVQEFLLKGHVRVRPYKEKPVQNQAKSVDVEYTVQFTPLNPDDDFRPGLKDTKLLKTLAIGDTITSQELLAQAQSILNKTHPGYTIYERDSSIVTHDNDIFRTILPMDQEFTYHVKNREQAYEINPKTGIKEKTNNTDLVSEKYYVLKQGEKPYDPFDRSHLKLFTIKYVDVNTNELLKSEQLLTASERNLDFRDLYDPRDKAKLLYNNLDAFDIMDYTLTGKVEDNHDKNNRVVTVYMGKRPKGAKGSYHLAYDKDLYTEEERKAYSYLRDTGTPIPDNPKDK
Description: S. pyogenes streptokinase expression inhibitors, potency, dose response, plasminogen activation absorbance, OD405 (AID 1914).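 Also: secreted streptokinase activity via plasminogen activation per viability signal from cell pellet.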 Format: functional, Streptococcus pyogenes M1 GAS.

Another test has as its system Streptococcus. Description: Group A Streptococcus viability loss, dose response, counter-screen for streptokinase expression inhibitor project, luminescence, BacTiterGlo (AID 1915).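 Also: potency for reduction of bacterial viability or growth.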 It counts as functional, organism-based. Background: The purpose of a counterscreen is to sort out artefacts and off-target activity.

Regarding `CCN1C(=O)/C(=C/N(C)c2ccccc2)OC1=S`, the IC50 at Protein skinhead-1 is 76.6 µM (inactive).
As to `COc1cc(/C=C2\C=CC(=O)O2)cc(OC)c1`, the results for the EC50 (in [1]; in [2]; in the test with H4) were 13.3 µM (active), 12.2 µM (active) and > 120 µM (not active), respectively.
On to `O=[N+]([O-])c1ccc(S(=O)(=O)Nc2nc3ccccc3nc2Nc2ccccc2)cc1`, for which the EC50 was > 150 µM (inactive) in test [3] and 2.06 µM (active) in test [4].
On to `O=C(C1=NNCC1c1ccccc1)C1OC1c1ccccc1` (configuration not stated), for which the EC50 in test [1] was 20.8 µM (active); in test [2], 13.5 µM (active); in the test on H4 it was > 120 µM (not active).
With `Cc1onc(-c2ccccc2)c1C(=O)NN=C(N)COc1ccc(Cl)cc1`, the results for the EC50 in [3] and in test [4] were > 150 µM (inactive) and > 38 µM (not active), respectively.
For `O=C(O)c1cnc(-c2ccccc2)nc1Sc1ccccc1Cl`, the EC50 in [3] is > 160 µM (inactive); in [4] it was 0.356 µM (active).
In the case of `Cc1cccc(NC(S)=NNC(=O)c2csc(C(C)C)c2)c1`, the EC50 is > 150 µM (inactive) in [3], 20.3 µM (active) in test [1] and 36.9 µM (active) in test [2]. Also, in test [5], the CC50 is 27.1 µM (active).
`Cc1c(Cl)cccc1Nc1c([N+](=O)[O-])nn(-c2ccccc2)[n+]1[O-]`: on Protein skinhead-1, the IC50 was > 100 µM (inactive).
On to `O=C(Nc1ccc(Br)c(Cl)c1)c1ccco1`, for which, on Protein skinhead-1, the IC50 is 14.2 µM (active).
`O=C1C(Cl)=C(N2CCOCC2)C(=O)N1CCc1ccccc1`: the EC50 is 0.656 µM (active) in test [1], 1.56 µM (active) in [2] and > 120 µM (not active) in the test with H4.
With `CCOC(=O)C1CCN(C(=O)CSCc2nc(-c3ccc(OCC)cc3)oc2C)CC1`, the CC50 in [6] is > 40 µM (active).
`O=C(CCC(=O)N1CCN(C2CCCCC2)CC1)Nc1nnc(C(F)(F)F)s1`: the IC50 with H9c2 was > 79 µM (inactive).
Take `C=CCN1C(=O)C(=O)N(Cc2nc3ccccc3s2)C1=O`: the results for the EC50 (in test [1]; in test [2]; in the test with H4) were 10.7 µM (active), 36.3 µM (active) and 0.283 µM (active), respectively. In addition, the IC50 at Protein skinhead-1 was > 100 µM (inactive).
Regarding `Cc1nc(N2CCN(S(=O)(=O)c3cccc4nonc34)CC2)c2c3c(sc2n1)CCCC3`, the IC50 in the test on H9c2 is > 79 µM (inactive).
Take `COc1ccccc1Nc1nc(N)nc(CCl)n1`: the CC50 in test [6] was 1.88 µM (active).
As to `N#C/C(=C/c1ccc(Sc2nc3ccccc3[nH]2)o1)c1cccc(Br)c1`, the CC50 in test [6] was > 40 µM (active).
In the case of `O=C(NN=C(S)Nc1cccc(C(F)(F)F)c1)c1ccc(Cl)cc1Cl`, the EC50 is > 160 µM (inactive) in test [3], 4.65 µM (active) in test [4] and > 53 µM (inactive) in test [7].
As to `COc1ccc(NN=Nc2ccc([N+](=O)[O-])cc2)cc1`, the EC50 is 1.01 µM (active) in [1], 0.485 µM (active) in test [2] and 64.4 µM (active) with H4.
As for `O=C(/C=C/c1cccs1)c1ccc(Br)cc1`, the IC50 at Protein skinhead-1 is 73.8 µM (inactive).
Take `C=CCNC(=O)c1cc2c(=O)n3ccccc3nc2s1`: the EC50 in test [1] was 1.08 µM (active); in [2] it was 0.166 µM (active). Further, on Protein skinhead-1, the IC50 is > 100 µM (inactive).
`Cc1ccc(NC(=O)CNC(=O)c2cccs2)cc1S(=O)(=O)Nc1ccc(Cl)cc1`: the IC50 on Protein skinhead-1 is > 100 µM (inactive).
`CCCc1ccc(OCC(=O)Nc2cc(S(=O)(=O)CC)ccc2O)cc1`: the EC50 in test [3] was > 160 µM (inactive); in test [4], 1.45 µM (active).
`c1ccc(-c2nc(-n3ccnc3)nc(-n3ccnc3)n2)cc1`: the IC50 with H9c2 was > 79 µM (inactive).
Regarding `CC(=O)Nc1cc(C(F)(F)F)ccc1OCC1CCCO1` (configuration not stated), at Protein skinhead-1, the IC50 is > 100 µM (inactive).
For the compound `CCSc1ccc2cc(OC)ccc2[n+]1CC`, the EC50 in [3] is > 160 µM (inactive); in test [4] it was > 38 µM (not active); in [8] it was 6.53 µM (active); in [9] it was > 60 µM (not active).
In the case of `Fc1ccccc1-c1nc(-c2ccc(Cl)cc2)no1`, on Protein skinhead-1, the IC50 was > 100 µM (inactive).
On to `CCOc1ccc(NC(=O)CN(C)C(=O)Cc2nnc(O)c3ccccc23)cc1OCC`, for which, in the test on H9c2, the IC50 is > 79 µM (inactive).
Turning to `O=C(OCC(=O)N1CCc2ccccc21)c1nnc(O)c2ccccc12`, the IC50 in the test on H9c2 is 12.3 µM (active).
`C[C@]12CC[C@H](O)CC1=CCC1C2CC[C@@]2(C)C1CCC21OCCO1` (some centres not stated): the AC50 in test [10] was 27.3 µM (active).
On to `Oc1oc(-c2ccccc2Br)nc1/C=N/c1ccccn1`, for which the EC50 in [1] is 59.1 µM (active); in test [2], 13 µM (active); in the test with H4 it was > 120 µM (not active).
Regarding `CC1=C/C(=N\NC(=S)NCCc2ccccc2)CC(C)(C)C1`, the EC50 in test [3] was > 150 µM (inactive); in [1], 12.1 µM (active); in [2], 14.2 µM (active); in test [11], 11.4 µM (active); with H4 it was > 120 µM (not active); at Streptokinase A, 64 µM (active). Besides, the EC50 in test [4] is given as > 38 µM (not active); with Streptococcus, > 150 µM (not active).
Turning to `Cc1nn(-c2ccccc2)c(Cl)c1/C=N/NC(=O)c1ccc(NS(=O)(=O)c2cccs2)cc1`, the EC50 in [1] is 17.3 µM (active); in [2], 7.45 µM (active); in test [11] it was 2.1 µM (active); in the test with H4, 9.52 µM (active); in the test with Streptococcus, 5.04 µM (active).
In the case of `O=c1cc(/C=C/c2ccccc2)oc2ccccc12`, the CC50 in test [6] was > 40 µM (active). For the same compound, the IC50 on Protein skinhead-1 was 78.9 µM (inactive).

As a reminder, the IC50 is the concentration that gives 50% inhibition. By AC50 is commonly meant the concentration at which the activity in the assay is half-maximal.
